≈ marks a conversion by molar mass, not a printed value. Where “and” joins values, the source holds several entries; their conditions need not be identical. Identical values can stand only once. Calls of active or inactive are those of the source. The rule behind the calls is not given here.
Assays:
Plutella xylostella = experiment: Insecticidal activity against Plutella xylostella; type: functional
Spodoptera frugiperda = experiment: Insecticidal activity against Spodoptera frugiperda; type: functional
Heliothis virescens = experiment: Insecticidal activity against Heliothis virescens; type: functional
[1] = Activation of Heliothis virescens recombinant ryanodine receptor expressed in Sf9 cells assessed as induction of calcium mobilization
Ryanodine receptor 2 [2] = target: T1, Ryanodine receptor 2 (Homo sapiens, UniProt Q92736); experiment: Activation of ryanodine receptor in human IMR32 cells assessed as induction of calcium mobilization; type: cell-based
T1 sequence (Q92736 whole entry): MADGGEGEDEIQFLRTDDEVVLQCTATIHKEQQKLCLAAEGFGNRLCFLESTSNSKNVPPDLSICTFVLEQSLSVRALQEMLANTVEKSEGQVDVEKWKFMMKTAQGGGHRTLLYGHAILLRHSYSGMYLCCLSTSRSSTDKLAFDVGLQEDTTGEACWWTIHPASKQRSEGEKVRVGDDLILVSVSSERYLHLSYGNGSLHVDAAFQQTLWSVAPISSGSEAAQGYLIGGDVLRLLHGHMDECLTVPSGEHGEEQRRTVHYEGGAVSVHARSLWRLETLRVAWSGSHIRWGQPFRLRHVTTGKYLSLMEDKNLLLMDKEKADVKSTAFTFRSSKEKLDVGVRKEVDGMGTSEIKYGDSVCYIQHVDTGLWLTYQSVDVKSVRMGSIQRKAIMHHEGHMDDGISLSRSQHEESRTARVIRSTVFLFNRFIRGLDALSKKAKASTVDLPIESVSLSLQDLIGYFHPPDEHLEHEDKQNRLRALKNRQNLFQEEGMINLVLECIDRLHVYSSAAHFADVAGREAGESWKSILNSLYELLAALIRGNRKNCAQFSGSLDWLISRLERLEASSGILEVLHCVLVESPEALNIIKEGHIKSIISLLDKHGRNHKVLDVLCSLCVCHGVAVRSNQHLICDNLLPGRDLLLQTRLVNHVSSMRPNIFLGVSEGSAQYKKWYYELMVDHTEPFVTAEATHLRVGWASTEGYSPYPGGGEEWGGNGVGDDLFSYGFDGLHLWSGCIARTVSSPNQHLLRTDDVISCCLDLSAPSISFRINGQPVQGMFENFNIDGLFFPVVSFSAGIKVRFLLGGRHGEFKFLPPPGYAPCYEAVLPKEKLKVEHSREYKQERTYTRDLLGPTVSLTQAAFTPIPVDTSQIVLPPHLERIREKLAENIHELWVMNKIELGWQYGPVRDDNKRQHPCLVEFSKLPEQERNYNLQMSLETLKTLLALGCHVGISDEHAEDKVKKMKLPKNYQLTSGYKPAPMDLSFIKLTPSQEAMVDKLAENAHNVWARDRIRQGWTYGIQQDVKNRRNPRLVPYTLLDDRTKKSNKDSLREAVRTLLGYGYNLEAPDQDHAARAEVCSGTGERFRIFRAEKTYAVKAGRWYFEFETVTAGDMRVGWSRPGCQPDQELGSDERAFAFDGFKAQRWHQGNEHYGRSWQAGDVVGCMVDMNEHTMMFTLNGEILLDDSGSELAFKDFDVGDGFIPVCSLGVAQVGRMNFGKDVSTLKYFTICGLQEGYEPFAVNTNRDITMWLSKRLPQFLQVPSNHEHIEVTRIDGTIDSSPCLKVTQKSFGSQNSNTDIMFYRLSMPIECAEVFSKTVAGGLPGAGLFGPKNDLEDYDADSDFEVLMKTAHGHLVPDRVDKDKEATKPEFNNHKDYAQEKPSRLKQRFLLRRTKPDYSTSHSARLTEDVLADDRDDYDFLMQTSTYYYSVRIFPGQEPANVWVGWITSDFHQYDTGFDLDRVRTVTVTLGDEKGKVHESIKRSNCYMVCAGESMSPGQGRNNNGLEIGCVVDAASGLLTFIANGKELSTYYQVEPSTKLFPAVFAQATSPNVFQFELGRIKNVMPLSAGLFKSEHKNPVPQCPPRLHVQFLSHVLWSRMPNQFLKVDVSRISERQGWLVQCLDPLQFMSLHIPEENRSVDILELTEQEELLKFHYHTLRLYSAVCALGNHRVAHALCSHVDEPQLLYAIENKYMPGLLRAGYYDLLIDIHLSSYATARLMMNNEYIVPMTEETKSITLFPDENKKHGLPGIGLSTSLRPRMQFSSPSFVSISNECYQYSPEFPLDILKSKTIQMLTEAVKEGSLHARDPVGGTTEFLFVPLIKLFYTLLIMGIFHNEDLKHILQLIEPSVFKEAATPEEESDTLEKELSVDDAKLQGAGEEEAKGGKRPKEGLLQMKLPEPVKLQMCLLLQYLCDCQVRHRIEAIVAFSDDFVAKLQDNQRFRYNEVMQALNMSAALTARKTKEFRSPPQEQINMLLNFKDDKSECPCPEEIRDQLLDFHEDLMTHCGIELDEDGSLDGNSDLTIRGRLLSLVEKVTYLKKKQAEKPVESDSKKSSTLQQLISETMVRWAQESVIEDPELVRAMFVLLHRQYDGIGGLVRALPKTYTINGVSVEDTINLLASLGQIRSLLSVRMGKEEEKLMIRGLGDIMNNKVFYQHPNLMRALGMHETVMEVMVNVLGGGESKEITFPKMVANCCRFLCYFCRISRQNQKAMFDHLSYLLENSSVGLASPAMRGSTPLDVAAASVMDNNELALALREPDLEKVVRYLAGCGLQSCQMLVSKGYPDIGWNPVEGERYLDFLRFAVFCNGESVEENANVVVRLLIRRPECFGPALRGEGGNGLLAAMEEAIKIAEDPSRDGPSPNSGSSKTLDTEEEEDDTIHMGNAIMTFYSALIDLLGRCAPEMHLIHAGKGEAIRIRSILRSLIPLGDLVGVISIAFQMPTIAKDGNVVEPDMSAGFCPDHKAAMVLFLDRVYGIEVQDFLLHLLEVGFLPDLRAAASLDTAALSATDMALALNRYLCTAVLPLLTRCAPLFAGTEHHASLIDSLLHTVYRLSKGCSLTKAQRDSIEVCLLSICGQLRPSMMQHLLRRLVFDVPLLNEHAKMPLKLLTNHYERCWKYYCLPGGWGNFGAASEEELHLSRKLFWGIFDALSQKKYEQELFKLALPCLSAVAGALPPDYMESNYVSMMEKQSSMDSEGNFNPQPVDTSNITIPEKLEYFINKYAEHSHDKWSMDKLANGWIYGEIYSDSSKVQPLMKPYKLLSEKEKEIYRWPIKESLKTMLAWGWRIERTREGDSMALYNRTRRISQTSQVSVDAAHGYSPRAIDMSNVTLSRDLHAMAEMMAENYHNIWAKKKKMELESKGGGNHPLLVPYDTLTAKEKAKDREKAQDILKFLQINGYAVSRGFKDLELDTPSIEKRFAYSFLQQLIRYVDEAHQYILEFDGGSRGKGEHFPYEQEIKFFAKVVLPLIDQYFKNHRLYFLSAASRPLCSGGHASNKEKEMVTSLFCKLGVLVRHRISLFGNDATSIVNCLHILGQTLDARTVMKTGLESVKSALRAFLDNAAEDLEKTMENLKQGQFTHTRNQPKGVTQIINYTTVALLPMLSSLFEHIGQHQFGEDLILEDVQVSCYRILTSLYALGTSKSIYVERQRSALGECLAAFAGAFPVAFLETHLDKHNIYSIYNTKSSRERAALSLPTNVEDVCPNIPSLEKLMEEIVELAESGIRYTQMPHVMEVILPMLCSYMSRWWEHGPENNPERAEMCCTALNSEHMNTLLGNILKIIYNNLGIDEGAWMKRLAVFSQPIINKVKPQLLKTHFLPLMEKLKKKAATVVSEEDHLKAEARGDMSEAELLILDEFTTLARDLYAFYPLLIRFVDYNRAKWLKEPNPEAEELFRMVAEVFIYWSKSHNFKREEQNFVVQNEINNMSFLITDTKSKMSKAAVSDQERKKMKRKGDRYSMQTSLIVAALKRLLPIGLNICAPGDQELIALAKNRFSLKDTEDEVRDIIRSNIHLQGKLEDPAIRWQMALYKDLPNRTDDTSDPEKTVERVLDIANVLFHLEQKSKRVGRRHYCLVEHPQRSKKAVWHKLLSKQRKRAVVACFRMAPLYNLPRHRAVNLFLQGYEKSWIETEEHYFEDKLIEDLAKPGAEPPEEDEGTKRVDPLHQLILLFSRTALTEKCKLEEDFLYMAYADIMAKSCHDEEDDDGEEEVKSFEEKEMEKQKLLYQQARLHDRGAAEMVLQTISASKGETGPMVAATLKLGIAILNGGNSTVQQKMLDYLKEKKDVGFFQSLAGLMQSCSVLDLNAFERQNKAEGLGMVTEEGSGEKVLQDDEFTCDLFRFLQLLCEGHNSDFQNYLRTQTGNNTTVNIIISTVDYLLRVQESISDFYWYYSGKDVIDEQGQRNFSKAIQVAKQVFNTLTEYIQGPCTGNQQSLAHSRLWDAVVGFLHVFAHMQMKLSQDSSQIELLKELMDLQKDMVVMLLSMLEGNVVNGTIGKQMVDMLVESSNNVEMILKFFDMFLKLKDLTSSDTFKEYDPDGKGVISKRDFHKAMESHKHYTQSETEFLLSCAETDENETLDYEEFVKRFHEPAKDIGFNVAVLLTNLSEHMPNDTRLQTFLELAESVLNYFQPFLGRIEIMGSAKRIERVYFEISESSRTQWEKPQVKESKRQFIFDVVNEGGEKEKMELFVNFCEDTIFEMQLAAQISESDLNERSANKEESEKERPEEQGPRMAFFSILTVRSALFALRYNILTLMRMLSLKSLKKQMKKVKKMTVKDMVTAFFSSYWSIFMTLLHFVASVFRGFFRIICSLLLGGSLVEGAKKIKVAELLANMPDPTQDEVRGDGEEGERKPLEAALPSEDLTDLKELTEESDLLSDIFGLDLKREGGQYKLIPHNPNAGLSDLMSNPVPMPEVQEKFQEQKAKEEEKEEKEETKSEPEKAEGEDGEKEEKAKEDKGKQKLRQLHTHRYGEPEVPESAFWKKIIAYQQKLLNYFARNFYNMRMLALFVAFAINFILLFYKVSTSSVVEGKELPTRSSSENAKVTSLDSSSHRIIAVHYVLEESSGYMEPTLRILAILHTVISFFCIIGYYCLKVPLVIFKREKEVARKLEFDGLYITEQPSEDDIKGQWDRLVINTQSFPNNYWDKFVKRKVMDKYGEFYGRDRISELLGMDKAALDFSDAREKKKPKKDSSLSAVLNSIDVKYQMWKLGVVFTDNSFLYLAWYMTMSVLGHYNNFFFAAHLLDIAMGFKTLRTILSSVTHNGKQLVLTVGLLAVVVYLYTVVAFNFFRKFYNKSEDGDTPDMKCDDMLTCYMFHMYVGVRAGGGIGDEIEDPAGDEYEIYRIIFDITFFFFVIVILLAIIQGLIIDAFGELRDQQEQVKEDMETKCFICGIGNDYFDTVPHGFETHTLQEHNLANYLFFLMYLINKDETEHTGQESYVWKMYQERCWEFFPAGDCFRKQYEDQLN

Oryctolagus cuniculus = experiment: Toxicity in rabbit above 1000 mg/kg/day; type: organism-based; conditions: in vivo
Ryanodine receptor = Ryanodine receptor (Drosophila melanogaster, UniProt Q24498); experiment: Activation of Drosophila melanogaster ryanodine receptor in Sf9 cells assessed as induction of calcium mobilization; type: cell-based
PC-12 = experiment: Activation of ryanodine receptor in rat PC12 cells assessed as induction of calcium mobilization at 100 uM; type: cell-based
Ryanodine receptor 2 [3] = target: T1, Ryanodine receptor 2; experiment: Activation of ryanodine receptor in human IMR32 cells assessed as induction of calcium mobilization at 100 uM; type: cell-based; conditions: IMR-32
Rattus norvegicus = experiment: Toxicity in rat above 1000 mg/kg/day; type: organism-based; conditions: in vivo
[4] = Toxicity in po dosed rat; type: organism-based; conditions: in vivo
[5] = Activation of ryanodine receptor in mouse C2C12 cells assessed as induction of calcium mobilization; type: cell-based
[6] = Activation of ryanodine receptor in rat PC12 cells assessed as induction of calcium mobilization; type: cell-based; conditions: PC-12

Structure (SMILES) | LC50 (Plutella xylostella) | LC50 (Spodoptera frugiperda) | LC50 (Heliothis virescens) | EC50 [1] | further results
Cc1cc(Br)cc(C(=O)NC(C)C)c1NC(=O)c1cc(C(F)(F)F)nn1-c1ncccc1Cl | 0.01 µg/mL (≈ 0.0184 µM) | 0.03 µg/mL (≈ 0.0551 µM) | 0.03 µg/mL (≈ 0.0551 µM) | 1570 nM | 
CNC(=O)c1cc(Br)cc(C)c1NC(=O)c1cc(Br)nn1-c1ncccc1Cl | 0.06 µg/mL (≈ 0.114 µM) | 0.18 µg/mL (≈ 0.341 µM) | 0.11 µg/mL (≈ 0.208 µM) | 63 nM | 
Cc1cc(Cl)cc(C(=O)NC(C)C)c1NC(=O)c1cc(C(F)(F)F)nn1-c1ncccc1Cl | 0.01 µg/mL (≈ 0.02 µM) | 0.03 µg/mL (≈ 0.06 µM) | 0.02 µg/mL (≈ 0.04 µM) | 1830 nM | 
COc1cc(C(=O)Nc2c(C)cc(Cl)cc2C(=O)NC(C)C)n(-c2ncccc2Cl)n1 | 0.18 µg/mL (≈ 0.389 µM) | 0.3 µg/mL (≈ 0.649 µM) | 1.14 µg/mL (≈ 2.47 µM) | 387 nM | 
Cc1cc(C(F)(F)F)cc(C(=O)NC(C)C)c1NC(=O)c1cc(C(F)(F)F)nn1-c1ncccc1Cl | 0.07 µg/mL (≈ 0.131 µM) | 0.39 µg/mL (≈ 0.731 µM) | 0.11 µg/mL (≈ 0.206 µM) | 3700 nM | 
Cn1c(=O)c2c(ncn2C)n(C)c1=O |  |  |  |  | Activity (Ryanodine receptor 2 [2]; IMR-32): Dose-dependent effect
CNC(=O)c1cc(Cl)cc(C)c1NC(=O)c1cc(C(F)(F)F)nn1-c1ncccc1Cl | 0.01 µg/mL (≈ 0.0212 µM) | 0.02 µg/mL (≈ 0.0424 µM) | 0.05 µg/mL (≈ 0.106 µM) | 73 nM | 
CNC(=O)c1cc(Cl)cc(C)c1NC(=O)c1cc(OC(F)F)nn1-c1ncccc1Cl | 0.38 µg/mL (≈ 0.808 µM) | 0.21 µg/mL (≈ 0.447 µM) | 1.08 µg/mL (≈ 2.3 µM) | 60 nM | 
CNC(=O)c1cc(Cl)cc(C)c1NC(=O)c1cc(Br)nn1-c1ncccc1Cl [CHLORANTRANILIPROLE] | 0.02 µg/mL (≈ 0.0414 µM) | 0.02 µg/mL (≈ 0.0414 µM) | 0.04 µg/mL (≈ 0.0828 µM) | 52 nM and 50 nM | Activity (Oryctolagus cuniculus): Non-toxic; EC50 (Ryanodine receptor): 40 nM; Activity (PC-12): 20%; Activity (Ryanodine receptor 2 [3]): inactive; Activity (Rattus norvegicus): Non-toxic; LD50 [4]: > 5000 mg/kg; EC50 (Ryanodine receptor 2 [2]): > 100000 nM; EC50 [5]: 14000 nM; EC50 [6]: > 100000 nM
CNC(=O)c1cc(I)cc(C)c1NC(=O)c1cc(Br)nn1-c1ncccc1Cl | 0.07 µg/mL (≈ 0.122 µM) | 0.13 µg/mL (≈ 0.226 µM) | 0.16 µg/mL (≈ 0.278 µM) | 118 nM | 
Cc1cc(Cl)cc(C(=O)NC(C)C)c1NC(=O)c1cc(Br)nn1-c1ncccc1Cl | 0.04 µg/mL (≈ 0.0782 µM) | 0.04 µg/mL (≈ 0.0782 µM) | 0.02 µg/mL (≈ 0.0391 µM) | 458 nM | 
CNC(=O)c1cc(Cl)cc(C)c1NC(=O)c1cc(Cl)nn1-c1ncccc1Cl | 0.03 µg/mL (≈ 0.0684 µM) | 0.03 µg/mL (≈ 0.0684 µM) | 0.07 µg/mL (≈ 0.16 µM) | 69 nM | 
CNC(=O)c1cc(Cl)cc(C)c1NC(=O)c1cc(OCC(F)(F)F)nn1-c1ncccc1Cl | 0.04 µg/mL (≈ 0.0796 µM) | 0.11 µg/mL (≈ 0.219 µM) | 0.24 µg/mL (≈ 0.478 µM) | 240 nM | 
Cc1cc(Cl)cc(C(=O)NC(C)C)c1NC(=O)c1cc(OCC(F)(F)F)nn1-c1ncccc1Cl | 0.01 µg/mL (≈ 0.0189 µM) | 0.03 µg/mL (≈ 0.0566 µM) | 0.09 µg/mL (≈ 0.17 µM) | 2730 nM | 
Cc1cc(Cl)cc(C(=O)NC(C)C)c1NC(=O)c1cc(OC(F)F)nn1-c1ncccc1Cl | 0.1 µg/mL (≈ 0.201 µM) | 0.14 µg/mL (≈ 0.281 µM) | 0.12 µg/mL (≈ 0.241 µM) | 511 nM | 
CNC(=O)c1cc(I)cc(C)c1NC(=O)c1cc(C(F)(F)F)nn1-c1ncccc1Cl | 0.1 µg/mL (≈ 0.177 µM) | 0.26 µg/mL (≈ 0.461 µM) | 0.21 µg/mL (≈ 0.373 µM) | 205 nM | 
CNC(=O)c1cc(C(F)(F)F)cc(C)c1NC(=O)c1cc(C(F)(F)F)nn1-c1ncccc1Cl | 0.09 µg/mL (≈ 0.178 µM) | 0.53 µg/mL (≈ 1.05 µM) | 0.66 µg/mL (≈ 1.3 µM) |  | 
CNC(=O)c1cc(Cl)cc(C)c1NC(=O)c1cc(OC)nn1-c1ncccc1Cl | 0.33 µg/mL (≈ 0.76 µM) | 0.68 µg/mL (≈ 1.57 µM) | 2.43 µg/mL (≈ 5.6 µM) | 101 nM | 
Cc1cc(Cl)cc(C(=O)NC(C)C)c1NC(=O)c1cc(Cl)nn1-c1ncccc1Cl | 0.09 µg/mL (≈ 0.193 µM) | 0.05 µg/mL (≈ 0.107 µM) | 0.05 µg/mL (≈ 0.107 µM) | 270 nM | 

Reference: ChEMBL document CHEMBL1140509, “Rynaxypyr: a new insecticidal anthranilic diamide that acts as a potent and selective ryanodine receptor activator” (Bioorg Med Chem Lett, 2007)
